Values quoted from earlier work as cited in patent US20250381197A1, “Regimen for Treating Amyotrophic Lateral Sclerosis Having Onset 24 Months Prior to Treatment” (Woolsey Pharmaceuticals, Inc., priority 2022, published 2025).
Where two headings read alike, the source gives them in different places.

Tests used:
[1] = test system: ALS patients; conditions: 6-month study; ALS onset between 3 and 36 months; 30 mg twice a day; cited from earlier work
[2] = test system: human ALS patients; conditions: 30 mg intravenously twice daily over 20 consecutive working days; 3 patients; cited from earlier work
[3] = 1-hydroxy (M3) metabolite; cited from earlier work
[4] = test system: ALS patients; conditions: cited from earlier work

For Cl.O=S(=O)(c1cccc2cnccc12)N1CCCNCC1 [Fasudil, Hexahydro-1-(5-isoquinolinesulfonyl)-1H-1,4-diazepine monohydrochloride hemihydrate], the disease modification [1] is given as “did not result in any disease modification” and the “outcome of compassionate use” value [2] is given as “no conclusive results beyond safety”.
For O=S(=O)(c1cccc2c(O)nccc12)N1CCCNCC1 [M3], the half-life [3] is given as “about 8 hours”.
For CC1=NN(c2ccccc2)C(=O)C1 [edaravone], the primary endpoint ([4]; enrollment narrowed to patients diagnosed two years or less (Tanaka 2016a)) is given as “met the primary endpoint”, the primary endpoint ([4]; enrollment of three years or less (Abe 2017)) is given as “did not meet the primary endpoint” and the “treatment effect between placebo and edaravone” value ([4]; severe ALS patients, disease onset of less than three years (Tanaka 2016b)) is given as “failed to demonstrate any treatment effect”.
